Experimental data reported in publication PMC5808925 (Nature, 2017).

Tested on: recombinant HLA-DR*0401
Type: binding, human

IKNKIDGETTDYAAPV
affinity for HLA-DR*0401: high affinity
